Data: US20090270350A1, “Pyridinone Pyrazole Urea and Pyrimidinone Pyrazole Urea Derivatives” (PFIZER INC., priority 2006, published 2009)
Where two headings read alike, the source gives them in different places.

Biological target: p38α (Homo sapiens, UniProt Q16539)
Experiment: p38α/MK2 cascade assay
Format: biochemical
Conditions: read-out: p38a/MK2 Cascade 40 min Pre-Incuabtion (% Inhibition): IC50
Experimental: The ability of compounds to inhibit activated p38α was determined in a p38α/MK-2 cascade assay format. The kinase activity of p38α is determined by its ability to phosphorylate/activate nonactive MK2 (54-400). Activation of MK-2 by p38α is measured by following the phosphorylation of a MK-2 specific peptide, Hsp27 peptide (FITC-KKKALSRQLSVAA). The phosphorylation of the Hsp27 peptide was quantified using the Caliper LabChip 3000. The kinase reactions were carried out in 20 mM HEPES pH 7.5, 10 mM MgCl2, 0.0005% Tween-20, 0.01% BSA, 1 mM DTT, and 2% DMSO. The inhibitors were varied between 1000-0.05 nM, while the Hsp27 peptide substrate, MgATP, and nonactive MK-2 (54-400) were held constant at 0.5 µM, 5 µM, and 1 nM, respectively. Inhibitors were preincubated with p38α for 40 minutes prior to initiating the reaction with peptide, MgATP, and MK-2. The kinase reactions were quenched after 60 minutes by the addition of stop buffer (180 mM HEPES, 30 mM EDTA, and 0.2% Coating Reagent-3).
The above protocol assay was used to determine the IC50 values for some of the compounds in the above Examples.
IC50 values were determined for the compounds listed in Table 2, using the same p38α/MK2 cascade assay used to determine the IC50 values for the compounds in Table 1. The compounds of Table 2 were prepared using methods similar to those listed in the Examples for compounds of Table 1.

[1] = Table 1, inhibitors preincubated with p38α for 40 minutes, phosphorylation of Hsp27 peptide by MK-2, Caliper LabChip 3000
[2] = Table 2, same p38α/MK2 cascade assay, 40 minutes preincubation

Chain of p38α (Q16539 whole entry): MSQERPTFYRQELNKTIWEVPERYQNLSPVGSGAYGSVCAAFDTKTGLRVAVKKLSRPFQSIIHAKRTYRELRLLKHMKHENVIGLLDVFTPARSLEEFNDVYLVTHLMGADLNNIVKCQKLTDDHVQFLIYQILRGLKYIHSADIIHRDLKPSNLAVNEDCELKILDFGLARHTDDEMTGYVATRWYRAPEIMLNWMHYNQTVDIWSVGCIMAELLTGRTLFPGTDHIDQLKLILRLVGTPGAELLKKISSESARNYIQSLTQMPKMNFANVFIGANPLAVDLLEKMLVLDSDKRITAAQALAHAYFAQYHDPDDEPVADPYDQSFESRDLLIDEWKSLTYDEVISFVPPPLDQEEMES

| Compound | IC50 [1] [nM] | IC50 [2] [nM] |
| --- | --- | --- |
| Cc1ccc(-n2nc(C(C)(C)C)cc2NC(=O)NCc2cc(F)ccc2COc2cc(C)n(-c3cc(C(=O)NCCO)ccc3C)c(=O)c2Br)cc1 [Example 193, 3-{3-bromo-4-[(2-{[({[3-tert-butyl-1-(4-methylphenyl)-1H-pyrazol-5-yl]amino}carbonyl)amino]methyl}-4-fluorobenzyl)oxy]-6-methyl-2-oxopyridin-1(2H)-yl}-N-(2-hydroxyethyl)-4-methylbenzamide] | 2.21 |  |
| CNC(=O)c1ccc(C)c(-n2c(C)cc(OCc3ccc(F)cc3CNC(=O)Nc3cc(C(C)(C)C)nn3-c3ccc(O)c(Cl)c3)c(Cl)c2=O)c1 [Example 236, 3-{4-[(2-{[({[3-tert-butyl-1-(3-chloro-4-hydroxyphenyl)-1H-pyrazol-5-yl]amino}carbonyl)amino]methyl}-4-fluorobenzyl)-oxy]-3-chloro-6-methyl-2-oxopyridin-1(2H)-yl}-N,4-dimethyl-benzamide] |  | 7.5 |
| Cc1ccc(C(=O)NCC(O)CO)cc1-n1c(C)cc(OCc2ccccc2CNC(=O)Nc2cc(C(C)(C)C)nn2-c2ccc(O)c(Cl)c2)c(Cl)c1=O (centres unmarked) [Example 227, 3-{4-[(2-{[({[3-tert-butyl-1-(3-chloro-4-hydroxyphenyl)-1H-pyrazol-5-yl]amino}carbonyl)amino]methyl}benzyl)oxy]-3-chloro-6-methyl-2-oxopyridin-1(2H)-yl}-N-(2,3-dihydroxy-propyl)-4-methylbenzamide] |  | 2 |
| CCc1c(OCc2ccccc2CNC(=O)Nc2cc(C(C)(C)C)nn2-c2ccc(C)cc2)ncn(Cc2ccccc2)c1=O [Example 110, 1-(2-{[(1-benzyl-5-ethyl-6-oxo-1,6-dihydropyrimidin-4-yl)oxy]methyl}benzyl)-3-[3-tert-butyl-1-(4-methylphenyl)-1H-pyrazol-5-yl]urea] | 14.4 |  |
| COCCNC(=O)c1ccc(C)c(-n2c(C)cc(OCc3ccccc3CNC(=O)Nc3cc(C(C)(C)C)nn3-c3cccc(OCCO)c3)c(Cl)c2=O)c1 [Example 238, 3-[4-{[2-({[({3-tert-butyl-1-[3-(2-hydroxyethoxy)phenyl]-1H-pyrazol-5-yl}amino)carbonyl]amino}methyl)benzyl]oxy}-3-chloro-6-methyl-2-oxopyridin-1(2H)-yl]-N-(2-methoxyethyl)-4-methylbenzamide] |  | 2 |
| COc1cccc(Cn2c(C)cc(OCc3ccc(F)cc3CNC(=O)Nc3cc(C(C)(C)C)nn3-c3cccc(OC)c3)cc2=O)c1 [Example 35, 1-[3-tert-butyl-1-(3-methoxyphenyl)-1H-pyrazol-5-yl]-3-[5-fluoro-2-({[1-(3-methoxybenzyl)-6-methyl-2-oxo-1,2-dihydropyridin-4-yl]oxy}methyl)benzyl]urea] | 42.2 |  |
| COc1cccc(Cn2c(C)cc(OCc3ccc(F)cc3CNC(=O)Nc3cc(C(C)(C)C)nn3-c3cccc(OCCOC4CCCCO4)c3)c(Cl)c2=O)c1 (centres unmarked) [Example 41, 1-(3-tert-butyl-1-{3-[2-(tetrahydro-2H-pyran-2-yloxy)ethoxy]phenyl}-1H-pyrazol-5-yl)-3-[2-({[3-chloro-1-(3-methoxybenzyl)-6-methyl-2-oxo-1,2-dihydropyridin-4-yl]oxy}methyl)-5-fluorobenzyl]urea] | 21.6 |  |

The remaining lines, values ahead:

| IC50 [1] [nM] | IC50 [2] [nM] | Compound |
| --- | --- | --- |
|  | 13.2 | CSc1ccccc1Cn1c(C)cc(OCc2ccccc2CNC(=O)Nc2cc(C(C)(C)C)nn2-c2cccc(O)c2)c(C)c1=O [Example 278, 1-[3-tert-butyl-1-(3-hydroxyphenyl)-1H-pyrazol-5-yl]-3-{2-[({3,6-dimethyl-1-[2-(methylthio)benzyl]-2-oxo-1,2-dihydropyridin-4-yl}oxy)methyl]benzyl}urea] |
|  | 3.6 | Cc1cc(OCc2ccccc2CNC(=O)Nc2cc(C(C)(C)C)nn2-c2ccc(O)c(Cl)c2)c(Cl)c(=O)n1Cc1ccc(CNC(=O)CN)cc1 [Example 274, N-[4-({4-[(2-{[({[3-tert-butyl-1-(3-chloro-4-hydroxyphenyl)-1H-pyrazol-5-yl]amino}carbonyl)amino]methyl}benzyl)oxy]-3-chloro-6-methyl-2-oxopyridin-1(2H)-yl}methyl)benzyl]-glycinamide] |
| 12.1 |  | Cc1ccc(-n2nc(C(C)(C)C)cc2NC(=O)NCc2ccccc2COc2cc(C)n(Cc3ccccc3)c(=O)c2C)cc1 [Example 128-C, 1-(2-{[(1-benzyl-3,6-dimethyl-2-oxo-1,2-dihydropyridin-4-yl)oxy]methyl}benzyl)-3-[3-tert-butyl-1-(4-methylphenyl)-1H-pyrazol-5-yl]urea] |
|  | 1.92 | COCCNC(=O)c1ccc(C)c(-n2c(C)cc(OCc3ccccc3CNC(=O)Nc3cc(C(C)(C)C)nn3-c3ccc(Cl)c(O)c3)c(Cl)c2=O)c1 [Example 230, 3-{4-[(2-{[({[3-tert-butyl-1-(4-chloro-3-hydroxyphenyl)-1H-pyrazol-5-yl]amino}carbonyl)amino]methyl}benzyl)oxy]-3-chloro-6-methyl-2-oxopyridin-1(2H)-yl}-N-(2-methoxyethyl)-4-methylbenzamide] |
|  | 4.6 | CNC(=O)c1ccc(C)c(-n2c(C)cc(OCc3ccccc3CNC(=O)Nc3cc(C(C)(C)C)nn3-c3ccc(O)c(Cl)c3)c(Cl)c2=O)c1 [Example 223, 3-{4-[(2-{[({[3-tert-butyl-1-(3-chloro-4-hydroxyphenyl)-1H-pyrazol-5-yl]amino}carbonyl)amino]methyl}benzyl)oxy]-3-chloro-6-methyl-2-oxopyridin-1(2H)-yl}-N,4-dimethylbenzamide] |
|  | 131 | CSc1ccccc1Cn1c(C)cc(OCc2ccccc2CNC(=O)Nc2cc(C(C)(C)C)nn2-c2ccc(Cl)c(O)c2)c(C)c1=O [Example 277, 1-[3-tert-butyl-1-(4-chloro-3-hydroxyphenyl)-1H-pyrazol-5-yl]-3-{2-[({3,6-dimethyl-1-[2-(methylthio)benzyl]-2-oxo-1,2-dihydropyridin-4-yl}oxy)methyl]benzyl}urea] |
|  | 1.3 | Cc1ccc(C(=O)NCC(O)CO)cc1-n1c(C)cc(OCc2ccccc2CNC(=O)Nc2cc(C(C)(C)C)nn2-c2ccc(Cl)c(O)c2)c(Cl)c1=O (centres unmarked) [Example 234, 3-{4-[(2-{[({[3-tert-butyl-1-(4-chloro-3-hydroxyphenyl)-1H-pyrazol-5-yl]amino}carbonyl)amino]methyl}benzyl)oxy]-3-chloro-6-methyl-2-oxopyridin-1(2H)-yl}-N-(2,3-dihydroxy-propyl)-4-methylbenzamide] |
| 20.1 |  | COc1cc(Cn2c(C)cc(OCc3ccccc3CNC(=O)Nc3cc(C(C)(C)C)nn3-c3cccc(O)c3)c(Cl)c2=O)ccc1Cl [Example 81, 1-[3-tert-butyl-1-(3-hydroxyphenyl)-1H-pyrazol-5-yl]-3-[2-({[3-chloro-1-(4-chloro-3-methoxybenzyl)-6-methyl-2-oxo-1,2-dihydropyridin-4-yl]oxy}methyl)benzyl]urea] |
| 9.3 |  | COc1ccc(Cn2c(C)cc(OCc3ccccc3CNC(=O)Nc3cc(C(C)(C)C)nn3-c3cccc(OCCO)c3)c(Cl)c2=O)cc1 [Example 57, 1-{3-tert-butyl-1-[3-(2-hydroxyethoxy)phenyl]-1H-pyrazol-5-yl}-3-[2-({[3-chloro-1-(4-methoxybenzyl)-6-methyl-2-oxo-1,2-dihydropyridin-4-yl]oxy}methyl)benzyl]urea] |
| 3.9 |  | COc1ccc(Cn2c(C)cc(OCc3ccccc3CNC(=O)Nc3cc(C(C)(C)C)nn3-c3cccc(F)c3)c(Br)c2=O)cc1 [Example 97, 1-[2-({[3-bromo-1-(4-methoxybenzyl)-6-methyl-2-oxo-1,2-dihydropyridin-4-yl]oxy}methyl)benzyl]-3-[3-tert-butyl-1-(3-fluorophenyl)-1H-pyrazol-5-yl]urea] |
